Laboratory results taken from patent US20240301003A1 (NoNO Inc., priority 2021, published 2024).
Entries after “also recorded” stand apart in the source; their conditions may differ. Where a SMILES comes first, the peptide text is derived from it. Where no end group is shown, it is not given here. [ ]: non-standard residue; d: D form.

What was measured:
PSD-95 PDZ domain 2 [1] = target: PSD-95 PDZ domain 2 (UniProt P78352); experiment: competitive ELISA on coated PSD95PDZ2
PSD95PDZ2 [2] = target: T1, PSD95PDZ2 (Homo sapiens, UniProt P78352); experiment: direct ELISA; biotinylated peptide (Bio-D-NA1)
Target sequence in this assay (P78352 160-246): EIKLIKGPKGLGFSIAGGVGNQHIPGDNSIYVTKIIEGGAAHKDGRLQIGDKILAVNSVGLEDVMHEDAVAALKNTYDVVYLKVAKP

plasmin = experiment: digested with plasmin
[3] = Plasma concentrations 15 minutes post subcutaneous dose (animals of the 3PVO model); format: in vivo, rat
Method: Unlike transient models of stroke in rats where much lower doses are required for neuroprotection, neuroprotection in 3 pial vessel occlusion models of stroke seems to require plasma concentrations of nerinetide at or above 2 ug/mL (or molar equivalent). […] Although the plasma levels continue to increase through about 3 hours then decrease, it is important to achieve rapid accumulation in the blood and brain for emergency indications like stroke. […] For pharmacokinetic sample analysis, calibration standard samples at concentrations of 0, 2.5, 5, 10, 15, 20 and 40 ug/mL of nerinetide were prepared by spiking 1 μL of the appropriate stock to 100 μL of plasma. […] Data is presented as mean±SD.

[4] = Pharmacokinetic analysis in rats (subcutaneous, pulmonary instillation, intravenous, intramuscular), HPLC
Method: Rats were anaesthetized in the supine position (Isoflurane 1.5--%) and allowed to breath spontaneously in 0.5 L/min 02. The left femoral artery was cannulated for blood sampling.
Test agents were prepared at the stablish concentration in a total volume of vehicle. Pulmonary instillation was performed by intubation with a 14G catheter connected to a 1 cc syringe and the test agent will be delivered through the catheter. Subcutaneous (SQ or SC) injection was injected into the area of the left flank, no more than 2 ml of total volume per site.
Each dose was evaluated in 3 rats for each administration strategy. […] For the first experiment, evaluating two different administration routes (SQ and PI), blood samples were collected at 8 different timepoints: Pre and at 7 additional times (1, 2.5, 5, 10, 15, 30, 60 min) post dose (250 ul/sample).
HPLC quantification: Plasma was separated from blood and stored at −−−80° C. until used. […] Standard curves for HPLC were generated from plasma samples spiked with known quantities of test agent.

histamine release = experiment: Histamine release in rats, plasma histamine ELISA; settings: rats
Method: Histamine levels were quantified by using commercially available histamine ELISA assay kit (Histamine ELISA-H1531-K01, Eagle Bioscience). The plates were coated with the plasma samples (50 ul/well) incubated for 60 minutes at room temperature on an orbital shaker with medium frequency. Then 100 ul of enzyme conjugate was added to the wells and incubated for 20 minutes at room temperature. […] The reaction was stopped with 100 ul H2SO4. Absorbance was determined on an ELISA plate reader at 450 nm.
Blood samples were taken at pre-injection and at 0, 1, 2.5, 5, 10, 15, 30- and 60-minutes post dose and used for histamine levels quantification using commercially available kit.

[5] = Physiologic parameters of NHP animals post NA-3 subcutaneous dose; format: in vivo, cynomolgus macaques
PSD95PDZ2 [6] = target: T1, PSD95PDZ2; experiment: Competitive ELISA with biotinylated-NA-1
Target sequence in this assay (P78352 160-246 limits assumed): as the sequence (P78352 160-246) above

[7] = MTD studies and renal toxicity in rats (creatinine, BUN)
[8] = NA-3 pharmacokinetics after subcutaneous injection in non-human primates; format: in vivo, cynomolgus macaques; settings: for plasma concentrations achieved: cynomolgus macaques
Description: All values are presented as mean±SD; Statistical significance when compared to nerinetide alone is indicated as * (one-way ANOVA with post-hoc turkey's correction, *P<0.01). (Cmax: maximum plasma concentrations based on the extrapolated time-zero value; t1/2: half-life at terminal phase; tmax: time to reach Cmax; AUC0-t: area under the concentration-time curve from 0 to the last measured value; AUC0-inf: extrapolated area under the concentration-time curve from 0 to infinity; Cl: total clearance). Data is presented as mean±SD of three-four animals per group. The (-) represent data not reported due to an extrapolation of the AUC0-inf greater than 20% and R^2 lower than 0.9.

[9] = rat plasma in vitro with tPA administered simultaneously
PSD-95 PDZ domain 2 [10] = target: PSD-95 PDZ domain 2 (UniProt P78352); experiment: competitive ELISA on coated PSD95PDZ2, competitor biotinylated NA-1
PSD95PDZ2 [11] = target: T1, PSD95PDZ2; experiment: direct ELISA; biotinylated peptide (Bio-D-Tat-L-NA1); unit printed "um"
Target sequence in this assay (P78352 160-246): as above

PSD-95 PDZ domain 2, sequence (P78352 160-246 limits assumed): as the sequence (P78352 160-246) above

## D-NA-1 (peptide)
PSD-95 PDZ domain 2 [1]
  fold change of EC50 against NA-1 and D-Tat-L-2B9C: 10 fold

## D-NA-1 NA1
PSD95PDZ2 [2]
  EC50: 1380 nM

## YGRKKRRQRRRKLSSIESDV
plasmin
  fragment found: RRQRRRKLSSIESDV; also recorded: RQRRRKLSSIESDV; also recorded: QRRRKLSSIESDV; also recorded: RRKLSSIESDV; also recorded: RKLSSIESDV; also recorded: KLSSIESDV; also recorded: LSSIESDV

## CC[C@H](C)[C@H](NC(=O)[C@@H](CO)NC(=O)[C@@H](CO)NC(=O)[C@@H](CC(C)C)NC(=O)[C@@H](CCCCN)NC(=O)[C@@H](CCCNC(=N)N)NC(=O)[C@@H](CCCNC(=N)N)NC(=O)[C@@H](CCCNC(=N)N)NC(=O)[C@@H](CCC(N)=O)NC(=O)[C@@H](CCCNC(=N)N)NC(=O)[C@@H](CCCNC(=N)N)NC(=O)[C@@H](CCCCN)NC(=O)[C@@H](CCCCN)NC(=O)[C@@H](CCCNC(=N)N)NC(=O)CNC(=O)[C@H](N)Cc1ccc(O)cc1)C(=O)N[C@@H](CCC(=O)O)C(=O)N[C@@H](CO)C(=O)N[C@@H](CC(=O)O)C(=O)N[C@H](C(=O)O)C(C)C [NA-3, ygrkkrrqrrrklssIESDV] (HELM PEPTIDE1{[dY].G.[dR].[dK].[dK].[dR].[dR].[dQ].[dR].[dR].[dR].[dK].[dL].[dS].[dS].I.E.S.D.V}$$$$V2.0; N-terminus and C-terminus assumed)
[3]; 15 min post subcutaneous dose
  plasma concentration compared to nerinetide at the same dose: higher concentration at 15 min post-dose
[3]; single subcutaneous administration, 2.5, 7.6, 25 mg/kg
  relation between treatment dose and Cmax: dose proportionality between the treatment dose and the Cmax
[4]; pulmonary instillation
  plasma concentration and plasma exposure relative to intrapulmonary NA-1: higher plasma concentration and a greater plasma exposure
[4]; pulmonary instillation 25 mg/kg
  CMax after pulmonary instillation: higher CMax than for NA-1 or D-Tat-L-2B9C
[4]; subcutaneous 25 mg/kg
  AUC compared with subcutaneous NA-1: increased
  Cmax compared with subcutaneous NA-1: increased
[4]; subcutaneous 25, 8.3, 2.8 mg/kg
  dose dependence of Cmax and AUC: dose-dependent increasing linearly with dose
Histamine release; 25 mg/kg SQ
  histamine release: resulted in histamine release but still much less than 7.6 mg/kg IV
Histamine release; subcutaneous 2.8 mg/kg
  histamine release: did not result in significant histamine release
Histamine release; subcutaneous 8.3 mg/kg
  histamine release: did not result in significant histamine release
[5]
  drops in blood pressure compared to NA-1: No significant drops in blood pressure were observed
  safety issues in physiologic parameters compared to intravenous nerinetide: no significant safety issues were identified
PSD95PDZ2 [6]
  IC50: < 5000 nM
PSD95PDZ2 [6]; FIG. 11, within the margin of error
  IC50's relative to each other: within a factor of two of each other
[7]; minimum effective dose versus highest no observed adverse effect level
  therapeutic index: low
[7]; rats, subcutaneous 7.6 mg/kg or 2.6 mg/kg
  creatinine and BUN values out of range: No values out of range were observed
[7]; rats, subcutaneous 25 mg/kg
  persistence of creatinine and BUN increases: persisted through day 7
[7]; rats, subcutaneous 25 mg/kg or 50 mg/kg, day 1 post dose
  creatinine and BUN (blood urea nitrogen): dose-dependent increases in creatinine and BUN
[7]; rats, subcutaneous, versus 25 mg/kg NA-3, pre and after 1 day
  creatinine levels on reducing the dose 2-fold: significant reduction of the NA-3 creatinine levels
[8]; subcutaneous 7.6 mg/Kg
  plasma concentrations achieved: able to achieve plasma concentrations higher than those demonstrated to be effective in humans
[8]; subcutaneous 25 mg/kg
  plasma concentrations achieved: able to achieve plasma concentrations higher than those demonstrated to be effective in humans
  Cmax and AUC versus nerinetide IV infusion: greater Cmax and AUC than nerinetide IV infusion

## yGrkkrrqrrrKLSSIESDV ([dY]G[dR][dK][dK][dR][dR][dQ][dR][dR][dR]KLSSIESDV)
[9]
  not cleaved: only negligible degradation when co-administered with tPA

## D-TAT-L-2B9c (peptide)
PSD-95 PDZ domain 2 [10]
  ratio of IC50 against D-Tat-L-IESDV: < 2 fold

## D-Tat-L-NA-1
PSD95PDZ2 [11]
  EC50: 139 nM
